What follows are molecules tested on acyl-CoA: cholesterol acyltransferase (ACAT) (assay: ACAT inhibiting effect in vitro (rat liver microsome, method of Ross et al.)). Conditions: rat liver microsome (Sprague-Dawley) enzyme fraction, 100 μM [14C]oleoyl-CoA, 37° C., 4 minutes; stated in words only.
Format: biochemical
Experimental: ACAT inhibiting activities were determined according to the improved test method in vitro reported by Ross et al. [A. C. Ross etal., J. Biol. Chem., 259, 815-819(1984)].
According to the procedure described in A. C. Ross et al., J. Biol. Chem., 257, 2453-2459(1982), rat liver microsome was prepared from a rat of Sprague-Dawley strain fasted overnight to make an enzyme fraction. To a 0.15M potassium phosphate buffer solution (pH 7.4) containing 100 μM of [14C]oleoyl-CoA, 2 mM of dithiothreitol and 80 μM of bovine serum albumin were added 60-100 μg of the microsome fraction, and a 5 μl solution of a test compound in dimethylsulfoxide (2.5% v/v) was added to the above phosphate buffer solution to make 200 μl. The mixture was warmed at 37° C. for 4 minutes and then the enzyme reaction was stopped by adding 1 ml of ethanol under stirring. To the reaction mixture were added 2 ml of hexane. After stirring, 1 ml of a hexane solution was taken out and the solvent was evaporated in a stream of nitrogen. Cholesteryl oleate resulted from the enzyme reaction was separated by thin layer chromatography through silica gel using a 85:15:1 mixture of hexane, diethyl ether and acetic acid as a developing solvent. An ACAT activity was determined by measuring radioactivity and a inhibiting rate (%) was calculated by comparing a control activity with that of the test compound at given concentrations.

ACAT inhibiting activity, excellent inhibiting activity:
CC(C)c1cccc(C(C)C)c1NC(=O)CC1(C)c2ccccc2Oc2ccccc21 [Example 18-B, N-[2,6-bis(1-methylethyl)phenyl]-2-(9-methyl-9H-xanthen-9-yl)acetamide]
CCc1cccc(OC(C)C)c1NC(=O)CC1c2ccccc2Oc2ccccc21 [Example 25, N-(2-Ethyl-6-isopropoxyphenyl)-2-(9H-xanthen-9-yl)acetamide]
CCc1cccc(SC(C)C)c1NC(=O)CC1c2ccccc2Oc2ccccc21 [Example 10, N-(2-Ethyl-6-isopropylthiophenyl)-2-(9H-xanthen-9-yl)acetamide]
CC(C)c1cccc(C(C)C)c1NC(=O)C(C)C1c2ccccc2Oc2ccccc21 (stereo not drawn) [Example 16, N-[2,6-Bis(1-methylethyl)phenyl]-2-(9H-xanthen-9-yl)propanamide]
CCc1cccc(Sc2ccccc2)c1NC(=O)CC1c2ccccc2Oc2ccccc21 [Example 11, N-(2- Ethyl-6-phenylthiophenyl)-2-(9H-xanthen-9-yl)acetamide]
CC(C)c1cccc(C(C)C)c1NC(=O)CC1c2ccccc2Oc2ccccc21 [Example 1, N-[2,6-Bis (1-methylethyl)phenyl]-2-(9H-xanthen-9-yl)acetamide]
CCc1cccc(CSC)c1NC(=O)CC1c2ccccc2Oc2ccccc21 [Example 3, N-(2-Ethyl-6-methylthiomethylphenyl)-2-(9H-xanthen-9-yl)acetamide]
CCc1cccc(CC)c1NC(=O)CC1c2ccccc2Oc2ccccc21 [Example 2, N-(2,6-Diethylphenyl)-2-(9H-xanthen-9-yl)acetamide]
CCc1cccc(SC)c1NC(=O)CC1c2ccccc2Oc2ccccc21 [Example 9, N-(2-Ethyl-6-methylthiophenyl)-2-(9H-xanthen-9-yl)acetamide]

Reference: patent US5563169A, “Tricyclic heterocyclic compound” (Sankyo Company, Limited, priority 1991, dated 1996)
